# Reference: patent publication US20230398130A1, “METHODS AND COMPOSITIONS FOR DIFFERENTIATING STEM CELLS” (Massachusetts Institute of Technology, priority 2020, published 2023)
# Experiments:
# ISC-enriched organoids [1] = experiment: Primary screen, 384-well 2.5-D organoid differentiation (ENR+CD, 6 days): carbachol-induced lysozyme secretion (LYZ.S); type: cell-based, murine; details: primary screen; for Dose.FC.LYZ.S: FC vs plate median; for Z.LYZ.S: standard z score; for SSMD.LYZ.S: strictly standardized mean difference
# Excerpt: (§1) High-throughput screening.
# ISC-enriched organoids [2] = experiment: Primary screen, 384-well 2.5-D organoid differentiation (ENR+CD, 6 days): basal lysozyme secretion (LYZ.NS); type: cell-based, murine; details: for Dose.FC.LYZ.NS: FC vs plate median; for SSMD.LYZ.NS: strictly standardized mean difference
# Excerpt: as §1
# ISC-enriched organoids [3] = experiment: Primary screen, 384-well 2.5-D organoid differentiation (ENR+CD, 6 days, Target Selective Inhibitor Library, vs whole-plate median): ATP (CellTiter-Glo 3D, CTG); details: for Dose.FC.CTG: FC vs plate median; for SSMD.CTG: strictly standardized mean difference
# [4] = 1st of the 4 dose lines of the treatment (dose not given)
# [5] = 2nd of the 4 dose lines of the treatment (dose not given)
# [6] = 3rd of the 4 dose lines of the treatment (dose not given)
# [7] = 4th of the 4 dose lines of the treatment (dose not given)
# [8] = Dose 0.08 uM, standard z score of FC
# [9] = Dose 0.40 uM, standard z score of FC
# [10] = Dose 2.00 uM, standard z score of FC
# [11] = Dose 10.00 uM, standard z score of FC
# [12] = primary screen, 1st of the 4 dose lines of the treatment (dose not given)
# [13] = primary screen, 2nd of the 4 dose lines of the treatment (dose not given)
# [14] = primary screen, 3rd of the 4 dose lines of the treatment (dose not given)
# [15] = primary screen, 4th of the 4 dose lines of the treatment (dose not given)
# [16] = Dose 0.08 uM, primary screen, standard z score
# [17] = Dose 0.40 uM, primary screen, standard z score
# [18] = Dose 2.00 uM, primary screen, standard z score
# [19] = Dose 10.00 uM, primary screen, standard z score
SMILES,Z.LYZ.S (ISC-enriched organoids [1]; [4]),Z.LYZ.S (ISC-enriched organoids [1]; [5]),Z.LYZ.S (ISC-enriched organoids [1]; [6]),Z.LYZ.S (ISC-enriched organoids [1]; [7]),SSMD.LYZ.S (ISC-enriched organoids [1]; [4]),SSMD.LYZ.S (ISC-enriched organoids [1]; [5]),SSMD.LYZ.S (ISC-enriched organoids [1]; [6]),SSMD.LYZ.S (ISC-enriched organoids [1]; [7]),SSMD.LYZ.NS (ISC-enriched organoids [2]; [12]),SSMD.LYZ.NS (ISC-enriched organoids [2]; [13]),SSMD.LYZ.NS (ISC-enriched organoids [2]; [14]),SSMD.LYZ.NS (ISC-enriched organoids [2]; [15]),Z.CTG (ISC-enriched organoids [3]; [8]),Z.CTG (ISC-enriched organoids [3]; [9]),Z.CTG (ISC-enriched organoids [3]; [10]),Z.CTG (ISC-enriched organoids [3]; [11]),SSMD.CTG (ISC-enriched organoids [3]; [12]),SSMD.CTG (ISC-enriched organoids [3]; [13]),SSMD.CTG (ISC-enriched organoids [3]; [14]),SSMD.CTG (ISC-enriched organoids [3]; [15]),other results
COc1ccc(-c2cnc3c(-c4cccc5ncccc45)cnn3c2)cc1 [ML347],0.608,0.715,0.467,−1.303,0.546,0.729,0.450,−1.245,1.159,1.286,0.509,−0.643,0.439,0.500,0.328,−0.404,0.464,0.557,0.403,−0.307,"Dose.FC.LYZ.S (ISC-enriched organoids [1]; Dose 0.08 uM): 0.094 log 2 fold change; Dose.FC.LYZ.S (ISC-enriched organoids [1]; Dose 0.40 uM): 0.111 log 2 fold change; Dose.FC.LYZ.S (ISC-enriched organoids [1]; Dose 2.00 uM): 0.072 log 2 fold change; Dose.FC.LYZ.S (ISC-enriched organoids [1]; Dose 10.00 uM): −0.202 log 2 fold change; Dose.FC.LYZ.NS (ISC-enriched organoids [2]; Dose 0.08 uM, primary screen): 0.124 log 2 fold change; Z.LYZ.NS (ISC-enriched organoids [2]; [8]): 1.079; Dose.FC.LYZ.NS (ISC-enriched organoids [2]; Dose 0.40 uM, primary screen): 0.132 log 2 fold change; Z.LYZ.NS (ISC-enriched organoids [2]; [9]): 1.150; Dose.FC.LYZ.NS (ISC-enriched organoids [2]; Dose 2.00 uM, primary screen): 0.069 log 2 fold change; Z.LYZ.NS (ISC-enriched organoids [2]; [10]): 0.600; Dose.FC.LYZ.NS (ISC-enriched organoids [2]; Dose 10.00 uM, primary screen): −0.124 log 2 fold change; Z.LYZ.NS (ISC-enriched organoids [2]; [11]): −1.078; Dose.FC.CTG (ISC-enriched organoids [3]; Dose 0.08 uM, primary screen): 0.184 log 2 fold change; Dose.FC.CTG (ISC-enriched organoids [3]; Dose 0.40 uM, primary screen): 0.209 log 2 fold change; Dose.FC.CTG (ISC-enriched organoids [3]; Dose 2.00 uM, primary screen): 0.137 log 2 fold change; Dose.FC.CTG (ISC-enriched organoids [3]; Dose 10.00 uM, primary screen): −0.169 log 2 fold change"
CC(C)C[C@H](NC(=O)CNC(=O)c1cc(Cl)ccc1Cl)B(O)O [MLN2238],−2.478,−2.317,−2.280,−2.394,−1.588,−1.620,−1.733,−1.739,−1.766,−1.837,−1.787,−2.223,−3.952,−2.637,−2.944,−4.205,−2.218,−0.972,−1.669,−1.891,–
O=C(O)c1ccc(Nc2ncc3c(n2)-c2ccc(Cl)cc2C(c2c(F)cccc2F)=NC3)cc1 [MLN8054],0.274,1.081,−0.562,−1.274,0.241,0.554,−0.486,−0.964,0.618,0.061,−0.713,−0.870,0.063,0.033,−1.111,−1.191,0.080,0.035,−0.959,−1.480,–
CCC(CC)(NC(=O)C(C)C)C(=O)N[C@@H](CCCN=C(N)N)C(=O)NC1(C(=O)NC(c2ccc(F)cc2)c2ccc(F)cc2)CCCC1 [MM-102],−0.177,−0.009,−0.226,−1.252,−0.148,−0.010,−0.218,−0.881,−0.233,−0.084,0.128,−0.792,−0.489,−0.315,−0.557,−0.964,−0.485,−0.493,−0.877,−1.350,"Dose.FC.LYZ.S (ISC-enriched organoids [1]; Dose 0.08 uM): −0.027 log 2 fold change; Dose.FC.LYZ.S (ISC-enriched organoids [1]; Dose 0.40 uM): −0.001 log 2 fold change; Dose.FC.LYZ.S (ISC-enriched organoids [1]; Dose 2.00 uM): −0.035 log 2 fold change; Dose.FC.LYZ.S (ISC-enriched organoids [1]; Dose 10.00 uM): −0.194 log 2 fold change; Dose.FC.LYZ.NS (ISC-enriched organoids [2]; Dose 0.08 uM, primary screen): −0.025 log 2 fold change; Z.LYZ.NS (ISC-enriched organoids [2]; [8]): −0.220; Dose.FC.LYZ.NS (ISC-enriched organoids [2]; Dose 0.40 uM, primary screen): −0.010 log 2 fold change; Z.LYZ.NS (ISC-enriched organoids [2]; [9]): −0.090; Dose.FC.LYZ.NS (ISC-enriched organoids [2]; Dose 2.00 uM, primary screen): 0.026 log 2 fold change; Z.LYZ.NS (ISC-enriched organoids [2]; [10]): 0.230; Dose.FC.LYZ.NS (ISC-enriched organoids [2]; Dose 10.00 uM, primary screen): −0.164 log 2 fold change; Z.LYZ.NS (ISC-enriched organoids [2]; [11]): −1.424; Dose.FC.CTG (ISC-enriched organoids [3]; Dose 0.08 uM, primary screen): −0.205 log 2 fold change; Dose.FC.CTG (ISC-enriched organoids [3]; Dose 0.40 uM, primary screen): −0.132 log 2 fold change; Dose.FC.CTG (ISC-enriched organoids [3]; Dose 2.00 uM, primary screen): −0.233 log 2 fold change; Dose.FC.CTG (ISC-enriched organoids [3]; Dose 10.00 uM, primary screen): −0.403 log 2 fold change"
S=C=Nc1cccc(NC(=S)NCCCCNC(=S)Nc2cccc(N=C=S)c2)c1 [MRS 2578],–,–,–,–,–,–,–,–,–,–,–,–,−0.339,0.146,−0.381,−0.544,–,–,–,–,"Dose.FC.LYZ.S (ISC-enriched organoids [1]; Dose 0.08 uM): 0.095 log 2 fold change; Dose.FC.LYZ.S (ISC-enriched organoids [1]; Dose 0.40 uM): 0.067 log 2 fold change; Dose.FC.LYZ.S (ISC-enriched organoids [1]; Dose 2.00 uM): 0.023 log 2 fold change; Dose.FC.LYZ.S (ISC-enriched organoids [1]; Dose 10.00 uM): 0.013 log 2 fold change; Dose.FC.LYZ.NS (ISC-enriched organoids [2]; Dose 0.08 uM, primary screen): 0.116 log 2 fold change; Z.LYZ.NS (ISC-enriched organoids [2]; [8]): 1.011; Dose.FC.LYZ.NS (ISC-enriched organoids [2]; Dose 0.40 uM, primary screen): 0.036 log 2 fold change; Z.LYZ.NS (ISC-enriched organoids [2]; [9]): 0.311; Dose.FC.LYZ.NS (ISC-enriched organoids [2]; Dose 2.00 uM, primary screen): 0.031 log 2 fold change; Z.LYZ.NS (ISC-enriched organoids [2]; [10]): 0.270; Dose.FC.LYZ.NS (ISC-enriched organoids [2]; Dose 10.00 uM, primary screen): 0.032 log 2 fold change; Z.LYZ.NS (ISC-enriched organoids [2]; [11]): 0.276; Dose.FC.CTG (ISC-enriched organoids [3]; Dose 0.08 uM, primary screen): −0.142 log 2 fold change; Dose.FC.CTG (ISC-enriched organoids [3]; Dose 0.40 uM, primary screen): 0.061 log 2 fold change; Dose.FC.CTG (ISC-enriched organoids [3]; Dose 2.00 uM, primary screen): −0.159 log 2 fold change; Dose.FC.CTG (ISC-enriched organoids [3]; Dose 10.00 uM, primary screen): −0.228 log 2 fold change"
COc1cc(-n2c(=S)[nH]c3ccccc3c2=O)c(Cl)cc1Cl [Mdivi-1],0.511,0.196,−0.310,−2.655,0.520,0.152,−0.196,−2.328,0.715,0.481,−0.093,−1.749,–,–,–,–,0.026,−0.072,−0.356,−1.838,"Dose.FC.LYZ.S (ISC-enriched organoids [1]; Dose 0.08 uM): 0.079 log 2 fold change; Dose.FC.LYZ.S (ISC-enriched organoids [1]; Dose 0.40 uM): 0.030 log 2 fold change; Dose.FC.LYZ.S (ISC-enriched organoids [1]; Dose 2.00 uM): −0.048 log 2 fold change; Dose.FC.LYZ.S (ISC-enriched organoids [1]; Dose 10.00 uM): −0.411 log 2 fold change; Dose.FC.LYZ.NS (ISC-enriched organoids [2]; Dose 0.08 uM, primary screen): 0.177 log 2 fold change; Z.LYZ.NS (ISC-enriched organoids [2]; [16]): 1.537; Dose.FC.LYZ.NS (ISC-enriched organoids [2]; Dose 0.40 uM, primary screen): 0.156 log 2 fold change; Z.LYZ.NS (ISC-enriched organoids [2]; [17]): 1.358; Dose.FC.LYZ.NS (ISC-enriched organoids [2]; Dose 2.00 uM, primary screen): −0.022 log 2 fold change; Z.LYZ.NS (ISC-enriched organoids [2]; [18]): −0.194; Dose.FC.LYZ.NS (ISC-enriched organoids [2]; Dose 10.00 uM, primary screen): −0.268 log 2 fold change; Z.LYZ.NS (ISC-enriched organoids [2]; [19]): −2.333; Dose.FC.CTG (ISC-enriched organoids [3]; Dose 0.08 uM, primary screen): 0.008 log 2 fold change; Z.CTG (ISC-enriched organoids [3]; [16]): 0.019; Dose.FC.CTG (ISC-enriched organoids [3]; Dose 0.40 uM, primary screen): −0.031 log 2 fold change; Z.CTG (ISC-enriched organoids [3]; [17]): −0.074; Dose.FC.CTG (ISC-enriched organoids [3]; Dose 2.00 uM, primary screen): −0.112 log 2 fold change; Z.CTG (ISC-enriched organoids [3]; [18]): −0.267; Dose.FC.CTG (ISC-enriched organoids [3]; Dose 10.00 uM, primary screen): −0.527 log 2 fold change; Z.CTG (ISC-enriched organoids [3]; [19]): −1.259"
